pIC50: −log10 of the molar value. ≈ marks a conversion by molar mass, not a printed value. Like-named read-outs stand apart in the source and are kept apart here.
Legend:
Escherichia coli ATCC 26 = assay: Antimicrobial activity, agar dilution method (MIC), EC; type: cell-based; conditions: ATCC26, pH 7, read-out: MIC, EC
Text: | EC: Escherichia coli ATCC 26

[1] = tested on: Enterococcus hirae ATCC 10541; assay: Antimicrobial activity, agar dilution method (MIC), EH; conditions: pH 7
Protocol: Antimicrobial activity was determined by the agar dilution method using a culture medium (pH 7) prepared by dissolving 3 g of Bacto-Tryptone (manufactured by Difco, Co.), 3 g of meat extract, 1 g of yeast extract, 1 g of glucose, and 16 g of agar in 1 l of water.
EH: Enterococcus hirae ATCC 10541

[2] = tested on: Staphylococcus aureus ATCC 6538P; assay: Antimicrobial activity, agar dilution method (MIC), SA; type: cell-based; conditions: ATCC6538P, pH 7, read-out: MIC, SA
Text: | SA: Staphylococcus aureus ATCC 6538P

[3] = tested on: Sarcoma 180 mouse solid tumor; assay: Antitumor activity against Sarcoma 180 mouse solid tumor; type: in vivo, male ddY mice; conditions: Sarcoma-180, iv, 168 h, single i.v., tumor volume on day 7 from transplant, read-out: T/C (tumor volume ratio treated/control)
Protocol: To a ddY mouse were intraperitoneally transplanted 5×10^6 sarcoma 180 cells. On the seventh day from the transplant, the cells were collected from the ascites, washed once with sterilized physiological saline, and then diluted with sterilized physiological saline to prepare a cell suspension having a concentration of 5×10^7 cells/mL. This suspension was transplanted in an amount of 0.01 mL to a subcutaneous part of the right axilla of each of male ddY mice each weighing 20±1 g.
A test compound was dissolved in physiological saline containing polyoxyethylene sorbitan monolaurate. At 24 hours after the tumor transplant, 0.2 mL of the solution was intravenously administered to the tail of each of a group of five mice.

[4] = tested on: Klebisiella pneumoniae ATCC 10031; assay: Antimicrobial activity, agar dilution method (MIC), KP; type: cell-based
Text: | KP: Klebisiella pneumoniae ATCC 10031

[5] = tested on: Bacillus substilis NO. 10707; assay: Antimicrobial activity, agar dilution method (MIC), BS; type: cell-based
Text: | BS: Bacillus substilis NO. 10707

HeLa S3 cells = assay: HeLa S3 cell growth inhibition test (Neutral Red); type: cell-based; conditions: Homo sapiens, HeLa S3; 72 hours, 37° C.; read-out: HeLa S3 Cell Growth Inhibition Activity, IC50
Protocol: In each well of a 96-well microtiter plate was placed 0.1 mL of HeLa S3 cells having a concentration of 8×10^3 cells/mL and prepared in an MEM culture medium containing 10% fetal bovine serum and 2 mM glutamine. After the cells were incubated overnight at 37° C. in a carbon dioxide incubator, a test compound suitably diluted with a medium was added to the wells in an amount of 0.05 mL for each well. The cells were incubated at 37° C. for 72 hours in a carbon dioxide incubator. After the culture supernatant was removed, 0.1 mL of a culture medium containing 0.02% Neutral Red was added to each well. The cells were then incubated at 37° C. for 1 hour in a carbon dioxide incubator to dye the cells. After the culture supernatant was removed, each residue was rinsed once with physiological saline and the pigment was extracted with 0.001N hydrochloric acid/30% ethanol. The absorbance at 550 nm of each extract was measured with a microplate reader. The drug concentration required for the 50% inhibition of cell growth, which is referred to as IC50, was calculated by comparing the absorbance for untreated cells with those for cells treated with the drug in known concentrations.

[6] = agar dilution, pH 7, read-out: MIC, KP
[7] = NO.10707, agar dilution, pH 7, read-out: MIC, BS

Row | SMILES | MIC (Escherichia coli ATCC 26) | MIC, EH [1] | MIC ([2]; agar dilution) | MIC [4, 6] | MIC [5, 7] | response vs control in vivo at 8 mg/kg [3] | other results
1 | C/C1=C\C(OC(=O)COCCOCCO)C(=O)/C=C/C=C\c2csc(n2)C(C)NC(=O)CC2(CC1)[S+]([O-])SC(=O)C2(C)O (stereo not shown) [Compound 8] | 2.1 µg/mL (≈ 3.2 µM) | 0.13 µg/mL (≈ 0.198 µM) | 0.13 µg/mL (≈ 0.198 µM) | 0.13 µg/mL (≈ 0.198 µM) | 0.13 µg/mL (≈ 0.198 µM) |  | response vs control in vivo at 4 mg/kg [3]: 36%
2 | COCCOCCOC(C)(C)C(=O)OC1/C=C(\C)CCC2(CC(=O)NC(C)c3nc(cs3)/C=C\C=C\C1=O)[S+]([O-])SC(=O)C2(C)O (stereo not shown) [Compound 10] | 0.65 µg/mL (≈ 0.93 µM) | 0.081 µg/mL (≈ 0.116 µM) | 0.081 µg/mL (≈ 0.116 µM) | 0.65 µg/mL (≈ 0.93 µM) | 0.041 µg/mL (≈ 0.0587 µM) |  | 
3 | COCCOCC(=O)OC1/C=C(\C)CCC2(C(C)(O)C(=O)SCc3oc(=O)oc3C)CC(=O)N(C(C)c3nc(cs3)/C=C\C=C\C1=O)[S+]2[O-] (stereo not shown) [Compound 11] |  |  |  |  |  |  | pIC50 (HeLa S3 cells): 7.52
4 | COCCOCCOCCOCC(=O)OC1/C=C(\C)CCC2(C(C)(O)C(=O)SCc3oc(=O)oc3C)CC(=O)N(C(C)c3nc(cs3)/C=C\C=C\C1=O)[S+]2[O-] (stereo not shown) [Compound 13] |  |  |  |  |  | 39% | 
5 | C/C1=C\C(OC(=O)COCCOCCO)C(=O)/C=C/C=C\c2csc(n2)C(C)N2C(=O)CC(C(C)(O)C(=O)SCc3oc(=O)oc3C)(CC1)[S+]2[O-] (stereo not shown) [Compound 17] |  | 1.8 µg/mL (≈ 2.34 µM) |  |  |  | 37% | MIC [2]: 1.8 µg/mL (≈ 2.34 µM); MIC ([4]; pH 7, read-out: MIC, KP): 1.8 µg/mL (≈ 2.34 µM); MIC ([5]; NO.10707, pH 7, read-out: MIC, BS): 1.82 µg/mL (≈ 2.37 µM)
6 | COCCOCCOCCOCCOCCOCC(=O)OC1/C=C(\C)CCC2(C(C)(O)C(=O)SCC3=C(C)OC(C)(C)OC3=O)CC(=O)N(C(C)c3nc(cs3)/C=C\C=C\C1=O)[S+]2[O-] (stereo not shown) [Compound 21] |  |  |  |  |  |  | response vs control in vivo at 16 mg/kg ([3]; 16 mg/kg): 45%
7 | COCCOCCOCC(=O)OC1/C=C(\C)CCC2(C(C)(O)C(=O)SCOC(=O)CC[C@H](NC(=O)OC(C)(C)C)C(=O)OC(C)(C)C)CC(=O)N(C(C)c3nc(cs3)/C=C\C=C\C1=O)[S+]2[O-] (stereo partly shown) [Compound 23] |  |  |  |  |  | 48% | pIC50 (HeLa S3 cells): 7.37
8 | COCCOCCOCCOCCOCCOCC(=O)OC1/C=C(\C)CCC2(C(C)(O)C(=O)SCOC(=O)CNC(=O)OC(C)(C)C)CC(=O)N(C(C)c3nc(cs3)/C=C\C=C\C1=O)[S+]2[O-] (stereo not shown) [Compound 24] |  |  |  |  |  |  | pIC50 (HeLa S3 cells): 7.68
9 | C/C1=C\C(OC(=O)COCCOCCOCCOCCO)C(=O)/C=C/C=C\c2csc(n2)C(C)NC(=O)CC2(CC1)[S+]([O-])SC(=O)C2(C)O (stereo not shown) [Compound 27] | 16.7 µg/mL (≈ 22.4 µM) | 0.065 µg/mL (≈ 0.0873 µM) | 0.13 µg/mL (≈ 0.175 µM) | 0.065 µg/mL (≈ 0.0873 µM) | 0.13 µg/mL (≈ 0.175 µM) | 18% | 
10 | COCCOCCOCC(=O)OC1/C=C(\C)CCC2(C(C)(O)C(=O)SCOC(=O)CC[C@H](NC(=O)[C@@]34O[C@H]5COC(C)(C)O[C@H]5[C@@H]3OC(C)(C)O4)C(=O)OC)CC(=O)N(C(C)c3nc(cs3)/C=C\C=C\C1=O)[S+]2[O-] (stereo partly shown) [Compound 28] |  |  |  |  |  | 31% | 
11 | COCCOCCOCC(=O)OC1/C=C(\C)CCC2(C(C)(O)C(=O)SCOC(=O)CC[C@H](NC(=O)C3(C)COC(C)(C)OC3)C(=O)OC)CC(=O)N(C(C)c3nc(cs3)/C=C\C=C\C1=O)[S+]2[O-] (stereo partly shown) [Compound 29] |  |  |  |  |  | 47% | 
12 | COCCOCCOCC(=O)OCCOCCOCC(=O)OC1/C=C(\C)CCC2(CC(=O)NC(C)c3nc(cs3)/C=C\C=C\C1=O)[S+]([O-])SC(=O)C2(C)O (stereo not shown) [Compound 30] |  |  |  |  |  |  | response vs control in vivo at 4 mg/kg [3]: 43%
13 | COCCOCC(=O)OCCOCCOCC(=O)OC1/C=C(\C)CCC2(CC(=O)NC(C)c3nc(cs3)/C=C\C=C\C1=O)[S+]([O-])SC(=O)C2(C)O (stereo not shown) [Compound 31] | 3.65 µg/mL (≈ 4.72 µM) | 0.11 µg/mL (≈ 0.142 µM) | 0.11 µg/mL (≈ 0.142 µM) | 0.057 µg/mL (≈ 0.0737 µM) | 0.057 µg/mL (≈ 0.0737 µM) | 12% | 

Reference: US6080771A, “DC107 derivatives” (Kyowa Hakko Kogyo Co., Ltd., priority 1996, dated 2000)
